# Measured values published in patent US20180042982A1, “Methods for Treating HCV” (priority 2013, published 2018).
# Experiments:
# [1] = tested on: replicon containing GT3a NS3 protease; experiment: Resistant colony selection in replicon containing GT3a NS3 protease; format: cell-based, Hepatitis C virus; conditions: concentrations ≧100-fold over its EC50 value
# Description: (§1) However, these variants had in vitro replication capacities of only 1.5% and 9.2% that of their corresponding wild-type replicons.
# HCV = experiment: Anti-HCV efficacy of Compound 1 at different doses; parameters: species or system Hepatitis C virus; conditions: 200-300 mg Compound 1 compared with 400 mg Compound 1
# HCV replicon Genotype 3a = experiment: HCV subgenomic stable replicon cell culture assay, genotype 3a; format: cell-based; conditions: Hepatitis C virus, read-out: Mean EC50, nM, ± Std. Dev.
# Description: as §1
# [2] = tested on: resistance-associated variants in GT 1b (Con-1) replicon; experiment: Activity against resistance-associated variants, GT 1b; format: cell-based, Hepatitis C virus
# Description: as §1
# [3] = tested on: resistance-associated variants in GT 1a (H77) replicon; experiment: Activity against resistance-associated variants, GT 1a; format: cell-based, Hepatitis C virus
# Description: as §1
structure (smiles),measurement,setting,value
CC(C)(C)[C@@H]1NC(=O)O[C@@H]2CCC[C@H]2OC/C=C/C(F)(F)c2nc3ccccc3nc2O[C@@H]2C[C@@H](C(=O)N[C@]3(C(=O)NS(=O)(=O)C4(C)CC4)C[C@H]3C(F)F)N(C2)C1=O [Compound 1],resistant colony selection,[1],selected very few colonies
same,anti-HCV efficacy of 200-300 mg versus 400 mg,HCV,comparable anti-HCV efficacy
same,EC50,HCV replicon Genotype 3a,1.6 ± 0.49 nM
same,activity against common variants at NS3 amino acid positions 155 and 168,[2]; GT1b variants conferring resistance to other HCV protease inhibitors,retained its activity
same,activity against NS5A inhibitor and NS5B inhibitor resistance-associated variants,"[2]; L28T, Y93H, S282T, C316Y, Y448H and S556G in GT 1b",potent activity
same,inhibitory activity against NS3 resistance-associated variants,"[2]; T54A, R155K, D168V and V170A in GT 1b (Con-1)",nearly equivalent to that against wild-type HCV replicon
same,activity against common variants at NS3 amino acid positions 155 and 168,[3]; GT1a variants conferring resistance to other HCV protease inhibitors,retained its activity
same,activity against NS5A inhibitor and NS5B inhibitor resistance-associated variants,"[3]; M28T, M28V, Q30D, Q30R, Y93C, Y93H, Y93N, L31V+Y93H, C316Y, M414T, Y448C, Y448H, S556G and S559G in GT 1a",potent activity
same,inhibitory activity against NS3 resistance-associated variants,"[3]; V36M, R155K, D168A and D168V in GT 1a (H77)",nearly equivalent to that against wild-type HCV replicon
